Measurements from patent US20130172294A1, “Treatment with VB-201” (Vascular Biogenics Ltd., priority 2010, published 2013).

Assay: Effect of food and capsule coating on single-dose pharmacokinetics (Example 3)
Format: in vivo, human
Method: Determination of VB-201 concentrations in plasma was performed using an HPLC-MS/MS (high performance liquid chromatography with tandem mass spectrometric detection) assay. Calibration was for a range of from 5 to 500 ng/ml for low doses and from 50 to 5000 ng/ml for high doses. Pharmacokinetic parameters were estimated by using a non-compartmental method, except for the AUC (area under curve), which was determined using a (log-) trapezoidal rule as the area above the previous trough level. All calculations were made using PKWizard (developed by Russell Barbare and Dr. […] was validated against WinNonlin (Pharsight Corp.), which is an FDA-recognized validated program. Pharmacokinetic parameters were calculated by the program according to standard methods used in the art. Calculation of the pharmacokinetic characteristics was based on the actual blood sampling time (in hours), with predose times set to zero. Concentrations below the LLOQ (lower limit of quantification; 4.974 ng/ml) were assumed to be zero. The effects of food on the pharmacokinetics of enteric coated and non-coated VB-201 capsules were investigated in a double-blind, placebo-controlled study in healthy subjects. Cohorts of six subjects each received a single dose of 10 mg, 2×10 mg or 20 mg VB-201 in the morning. […] Subjects were randomly assigned to receive the drug when fed (i.e., following completion of a standardized high fat meal) or when fasting (i.e., fasting for at least 10 hours). […] Subjects then underwent an additional 8 day washout period, after which subjects underwent a second administration. Subjects who received the first administration when fasting, received the second administration when fed, and subjects who received the first administration when fed, received the second administration when fasting. Following the second administration, blood samples were taken at the same times post-dose as previously. Concentration-time curves were constructed for time periods of up to 144 hours. Pharmacokinetic parameters were calculated based on data for the first 24 hours and for the whole 144 hours. […] Nevertheless, parameters were also calculated from data covering the first 24 hours in order to compare parameters with previous studies. Statistical comparisons of doses, coated vs. non-coated capsules, feeding vs. fasting and coating-feeding interactions were performed using a mixed model ANOVA in an SAS 8.02 software package (SAS Institute, Cary, N.C.) using PROC MIXED

AUC (0-infinity, from 24) (1 × 20 mg non-coated fasting): 16958 ng·h/mL | AUC (0-infinity, from 144) (1 × 20 mg non-coated fasting): 29478 ng·h/mL | AUC(0-24) (1 × 20 mg non-coated fasting): 10013 ng·h/mL | AUC(0-144) (1 × 20 mg non-coated fasting): 26650 ng·h/mL | AUMC (0-24) (1 × 20 mg non-coated fasting): 122207 hours^2*ng/ml | AUMC (0-infinity) (1 × 20 mg non-coated fasting): 1763607 hours^2*ng/ml | Cl/F (0-24) (1 × 20 mg non-coated fasting): 1.301 L/h | Cl/F (from 144) (1 × 20 mg non-coated fasting): 0.702 L/h | Cmax (1 × 20 mg non-coated fasting): 660.4 ng/mL | Ke (from 24) (1 × 20 mg non-coated fasting): 0.0486 h⁻¹ | Ke (from 144) (1 × 20 mg non-coated fasting): 0.0166 h⁻¹ | MTT (0-24) (1 × 20 mg non-coated fasting): 12.0 h | MTT (from 144) (1 × 20 mg non-coated fasting): 61.0 h | T1/2 (from 24) (1 × 20 mg non-coated fasting): 14.6 h | T1/2 (from 144) (1 × 20 mg non-coated fasting): 43.5 h | Tmax (1 × 20 mg non-coated fasting): 8.33 h | AUC (0-infinity, from 24) (1 × 20 mg non-coated fed): 23552 ng·h/mL | AUC (0-infinity, from 144) (1 × 20 mg non-coated fed): 26424 ng·h/mL | AUC(0-24) (1 × 20 mg non-coated fed): 8334 ng·h/mL | AUC(0-144) (1 × 20 mg non-coated fed): 24282 ng·h/mL | AUMC (0-24) (1 × 20 mg non-coated fed): 111005 hours^2*ng/ml | AUMC (0-infinity) (1 × 20 mg non-coated fed): 1555946 hours^2*ng/ml | Cl/F (0-24) (1 × 20 mg non-coated fed): 1.197 L/h | Cl/F (from 144) (1 × 20 mg non-coated fed): 0.852 L/h | Cmax (1 × 20 mg non-coated fed): 546.4 ng/mL | Ke (from 24) (1 × 20 mg non-coated fed): 0.0332 h⁻¹ | Ke (from 144) (1 × 20 mg non-coated fed): 0.0193 h⁻¹ | MTT (0-24) (1 × 20 mg non-coated fed): 13.0 h | MTT (from 144) (1 × 20 mg non-coated fed): 57.2 h | T1/2 (from 24) (1 × 20 mg non-coated fed): 25.2 h | T1/2 (from 144) (1 × 20 mg non-coated fed): 36.4 h | Tmax (1 × 20 mg non-coated fed): 8.17 h | AUC (0-infinity, from 24) (2 × 10 mg coated fasting): 10388 ng·h/mL | AUC (0-infinity, from 144) (2 × 10 mg coated fasting): 24950 ng·h/mL | AUC(0-24) (2 × 10 mg coated fasting): 6427 ng·h/mL | AUC(0-144) (2 × 10 mg coated fasting): 20269 ng·h/mL | AUMC (0-24) (2 × 10 mg coated fasting): 83132 hours^2*ng/ml | AUMC (0-infinity) (2 × 10 mg coated fasting): 2246560 hours^2*ng/ml | Cl/F (0-24) (2 × 10 mg coated fasting): 3.318 L/h | Cl/F (from 144) (2 × 10 mg coated fasting): 1.815 L/h | Cmax (2 × 10 mg coated fasting): 424.6 ng/mL | Ke (from 24) (2 × 10 mg coated fasting): 0.0493 h⁻¹ | Ke (from 144) (2 × 10 mg coated fasting): 0.0174 h⁻¹ | MTT (0-24) (2 × 10 mg coated fasting): 12.9 h | MTT (from 144) (2 × 10 mg coated fasting): 69.2 h | T1/2 (from 24) (2 × 10 mg coated fasting): 14.9 h | T1/2 (from 144) (2 × 10 mg coated fasting): 48.0 h | Tmax (2 × 10 mg coated fasting): 9.67 h | AUC (0-infinity, from 24) (2 × 10 mg coated fed): 15799 ng·h/mL | AUC (0-infinity, from 144) (2 × 10 mg coated fed): 24463 ng·h/mL | AUC(0-24) (2 × 10 mg coated fed): 5008 ng·h/mL | AUC(0-144) (2 × 10 mg coated fed): 21417 ng·h/mL | AUMC (0-24) (2 × 10 mg coated fed): 74749 hours^2*ng/ml | AUMC (0-infinity) (2 × 10 mg coated fed): 1794144 hours^2*ng/ml | Cl/F (0-24) (2 × 10 mg coated fed): 2.067 L/h | Cl/F (from 144) (2 × 10 mg coated fed): 1.239 L/h | Cmax (2 × 10 mg coated fed): 422.3 ng/mL | Ke (from 24) (2 × 10 mg coated fed): 0.0427 h⁻¹ | Ke (from 144) (2 × 10 mg coated fed): 0.0196 h⁻¹ | MTT (0-24) (2 × 10 mg coated fed): 15.1 h | MTT (from 144) (2 × 10 mg coated fed): 64.6 h | T1/2 (from 24) (2 × 10 mg coated fed): 22.8 h | T1/2 (from 144) (2 × 10 mg coated fed): 37.7 h | Tmax (2 × 10 mg coated fed): 14.33 h | AUC (0-infinity, from 24) (2 × 10 mg non-coated fasting): 14643 ng·h/mL | AUC (0-infinity, from 144) (2 × 10 mg non-coated fasting): 25734 ng·h/mL | AUC(0-24) (2 × 10 mg non-coated fasting): 10036 ng·h/mL | AUC(0-144) (2 × 10 mg non-coated fasting): 24028 ng·h/mL | AUMC (0-24) (2 × 10 mg non-coated fasting): 117485 hours^2*ng/ml | AUMC (0-infinity) (2 × 10 mg non-coated fasting): 1319516 hours^2*ng/ml | Cl/F (0-24) (2 × 10 mg non-coated fasting): 1.444 L/h | Cl/F (from 144) (2 × 10 mg non-coated fasting): 0.810 L/h | Cmax (2 × 10 mg non-coated fasting): 724.4 ng/mL | Ke (from 24) (2 × 10 mg non-coated fasting): 0.0606 h⁻¹ | Ke (from 144) (2 × 10 mg non-coated fasting): 0.0195 h⁻¹ | MTT (0-24) (2 × 10 mg non-coated fasting): 11.7 h | MTT (from 144) (2 × 10 mg non-coated fasting): 51.5 h | T1/2 (from 24) (2 × 10 mg non-coated fasting): 11.7 h | T1/2 (from 144) (2 × 10 mg non-coated fasting): 36.3 h | Tmax (2 × 10 mg non-coated fasting): 8.67 h | AUC (0-infinity, from 24) (2 × 10 mg non-coated fed): 15305 ng·h/mL | AUC (0-infinity, from 144) (2 × 10 mg non-coated fed): 25822 ng·h/mL | AUC(0-24) (2 × 10 mg non-coated fed): 8708 ng·h/mL | AUC(0-144) (2 × 10 mg non-coated fed): 24104 ng·h/mL | AUMC (0-24) (2 × 10 mg non-coated fed): 109878 hours^2*ng/ml | AUMC (0-infinity) (2 × 10 mg non-coated fed): 1409500 hours^2*ng/ml | Cl/F (0-24) (2 × 10 mg non-coated fed): 1.394 L/h | Cl/F (from 144) (2 × 10 mg non-coated fed): 0.802 L/h | Cmax (2 × 10 mg non-coated fed): 652.1 ng/mL | Ke (from 24) (2 × 10 mg non-coated fed): 0.0528 h⁻¹ | Ke (from 144) (2 × 10 mg non-coated fed): 0.0195 h⁻¹ | MTT (0-24) (2 × 10 mg non-coated fed): 12.7 h | MTT (from 144) (2 × 10 mg non-coated fed): 54.3 h | T1/2 (from 24) (2 × 10 mg non-coated fed): 15.4 h | T1/2 (from 144) (2 × 10 mg non-coated fed): 36.1 h | Tmax (2 × 10 mg non-coated fed): 8.50 h | effect of enteric coatings on Tmax (enteric coated vs non-coated): increased
Structure (SMILES): CCCCCCCCCCCCCCCCOCC(COP(=O)([O-])OCC[N+](C)(C)C)OCCCCC(=O)O (stereo not shown) [VB-201, 1-hexadecyl-2-(4′-carboxybutyl)-glycerol-3-phosphocholine]
